Measured values taken from patent US6399561B1, “Methods and compositions for bleaching a dye in solution” (Novozymes A/S, priority 1998, dated 2002).

How the values were obtained:
Format in all cases: biochemical
[1] = molecular target: T1, Polyporus pinsitus laccase (Trametes villosa, UniProt Q99044); assay: Bleaching of methyl orange with laccase and -NOH-CO- type mediators (microtitre plate, end-point absorbance)
T1 construct: made in house
T1 sequence (Q99044 22-520): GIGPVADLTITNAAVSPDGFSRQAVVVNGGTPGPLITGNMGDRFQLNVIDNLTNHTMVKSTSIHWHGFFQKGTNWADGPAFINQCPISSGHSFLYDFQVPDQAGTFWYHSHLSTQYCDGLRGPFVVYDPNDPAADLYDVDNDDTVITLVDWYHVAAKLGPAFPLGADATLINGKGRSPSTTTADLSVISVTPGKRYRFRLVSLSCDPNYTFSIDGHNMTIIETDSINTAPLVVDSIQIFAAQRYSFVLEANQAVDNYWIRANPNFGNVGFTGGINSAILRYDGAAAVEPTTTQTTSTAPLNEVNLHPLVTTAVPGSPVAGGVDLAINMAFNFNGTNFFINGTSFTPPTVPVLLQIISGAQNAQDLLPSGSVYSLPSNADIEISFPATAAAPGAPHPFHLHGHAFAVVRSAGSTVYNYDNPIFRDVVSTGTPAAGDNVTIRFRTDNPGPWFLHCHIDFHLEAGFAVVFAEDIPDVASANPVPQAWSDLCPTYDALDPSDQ
Method: Polyporus pinsitus laccase as described in Example 1.
(§1) Methyl orange (Merck, Germany)
50 μl 0.1 mg/ml methyl orange
125 μl 0.1 M Britton-Robinson buffer (see example 1)
(§2) 25 μl 2 mM mediator or water (as reference)
50 μl laccase dilution (1:400)
Methyl orange, buffer and mediator are mixed in a microtitre plate and the reaction is started by addition of laccase. Absorbance is measured at 450 nm after 15 min.
N-Hydroxyacetanilide and N-(4-cyanophenyl)-N-hydroxyacetamide were tested as mediators in bleaching of methyl orange with a laccase at pH 4-6. Low values represent the best performance.

[2] = test system: Recombinant Coprinus cinereus laccase (rCcL); assay: Bleaching of methyl orange using rCcL and NOH-type enhancing agents (initial bleaching rate); details: for Initial changes per minute in A464 nm of methyl orange using rCcL: rCcL solution diluted 1:200, 0.2 mM mediator, 30° C., large negative numbers = best performance
Method: (§3) Britton-Robinson buffer is composed of:
as §1
(§4) Reactions were started by addition of enzyme. Absorbance at 464 nm was followed for 3 minutes (readings every 5 seconds) on a Cobas Fara at 30° C. Initial bleaching rates were determined from the first linear part of the progress curves.
(§5) The N—OH compounds listed above were tested as laccase mediators in bleaching of methyl orange with three recombinant laccases (rPpL, rMtL and rCcL) at various pH values. Large negative numbers represent the best performance.

[3] = test system: Recombinant Myceliophthora thermophila laccase (rMtL); assay: Bleaching of methyl orange using rMtL and NOH-type enhancing agents (initial bleaching rate); details: rMtL solution diluted 1:300, 0.2 mM mediator, 30° C., large negative numbers = best performance
Method: as §3, §1, §4, §5

[4] = molecular target: T1, Polyporus pinsitus laccase; assay: Bleaching of various dyes with laccase and N-Hydroxyacetanilide (microtitre plate, end-point absorbance); details: + enzyme + mediator, pH 5, laccase dilution 1:400, low values = best performance
Method: Polyporus pinsitus laccase as described in Example 1, except that the concentration is 1726 LACU/ml.
125 μl 0.1 M Britton-Robinson buffer, pH 5 (see example 1)
as §2
50 μl laccase dilution (1:400) or water (as reference)
Dye, buffer and mediator are mixed in a micro-titre plate and the reaction is started by addition of laccase. Absorbance is measured at 595 nm after 5 min.
N-Hydroxyacetanilide was used as mediator in bleaching of various dyes with a laccase. Low values represent the best performance.

[5] = molecular target: T1, Polyporus pinsitus laccase; assay: Bleaching of methyl orange using rPpL and NOH-type enhancing agents (initial bleaching rate); details: rPpL solution diluted 1:200, 0.2 mM mediator, 30° C., large negative numbers = best performance
Method: as §3, §1, §4, §5

[6] = pH 4, laccase dilution 1:400, low values = best performance
[7] = pH 5, laccase dilution 1:400, low values = best performance
[8] = pH 6, laccase dilution 1:400, low values = best performance

| Compound | Absorbance measured at 450 nm after 15 minutes [1, 6] | Absorbance measured at 450 nm after 15 minutes [1, 7] | Absorbance measured at 450 nm after 15 minutes [1, 8] | Initial changes per minute in A464 nm of methyl orange using rCcL ([2]; pH 4) | Initial changes per minute in A464 nm of methyl orange using rCcL ([2]; pH 5) | Initial changes per minute in A464 nm of methyl orange using rCcL ([2]; pH 6) | Initial changes per minute in A464 nm of methyl orange using rCcL ([2]; pH 7) | Initial changes per minute in A464 nm of methyl orange using rCcL ([2]; pH 8) | Initial changes per minute in A464 nm of methyl orange using rMtL ([3]; pH 4) | Initial changes per minute in A464 nm of methyl orange using rMtL ([3]; pH 5) | Initial changes per minute in A464 nm of methyl orange using rMtL ([3]; pH 6) | Initial changes per minute in A464 nm of methyl orange using rMtL ([3]; pH 7) | Initial changes per minute in A464 nm of methyl orange using rPpL ([5]; pH 4) | Initial changes per minute in A464 nm of methyl orange using rPpL ([5]; pH 5) | Initial changes per minute in A464 nm of methyl orange using rPpL ([5]; pH 6) | Initial changes per minute in A464 nm of methyl orange using rPpL ([5]; pH 7) | further results |
| --- | --- | --- | --- | --- | --- | --- | --- | --- | --- | --- | --- | --- | --- | --- | --- | --- | --- |
| CC(=O)N(O)c1ccc(C#N)cc1 [N-(4-cyanophenyl)-N-hydroxyacetamide] | 0.065 | 0.055 | 0.083 |  |  |  |  |  |  |  |  |  |  |  |  |  | bleaching a dye in solution, result in words ([1]; laccase, pH 4-6): as effective as N-Hydroxyacetanilide |
| CC(=O)N(O)c1ccccc1 [N-hydroxyacetanilide, N-Hydroxyacetanilide] | 0.077 | 0.068 | 0.087 | −0.521 per minute | −0.719 per minute | −0.674 per minute | −0.498 per minute | −0.136 per minute | −1.306 per minute | −1.847 per minute | −0.630 per minute | −0.101 per minute | −4.743 per minute | −6.528 per minute | −1.837 per minute | −0.055 per minute | bleaching of methyl orange, result in words ([2]; summary of Tables 1-3 (rCcL, rMtL and rPpL, various pH)): surprisingly good compared with the other N—OH types enhancing agents; Absorbance measured at 595 nm after 5 minutes ([4]; dye Acid blue 45): 0.123; Absorbance measured at 595 nm after 5 minutes ([4]; dye Acid blue 113): 0.062; Absorbance measured at 595 nm after 5 minutes ([4]; dye CSB): 0.207; Absorbance measured at 595 nm after 5 minutes ([4]; dye Cibacron Marine): 0.235 |
| [O-][n+]1cccc2ccccc21 [Quinoline-N-oxide] |  |  |  | −0.004 per minute | −0.006 per minute | −0.010 per minute | −0.008 per minute | −0.004 per minute | −0.016 per minute | −0.011 per minute | −0.002 per minute | 0.000 per minute | −0.074 per minute | −0.041 per minute | −0.016 per minute | −0.002 per minute |  |
| ON=C(c1ccccn1)c1ccccn1 [di-2-pyridylketone oxime] |  |  |  | −0.004 per minute | −0.006 per minute | −0.008 per minute | −0.006 per minute | −0.001 per minute | −0.026 per minute | −0.010 per minute | −0.001 per minute | 0.001 per minute | −0.124 per minute | −0.107 per minute | −0.053 per minute | −0.005 per minute |  |
| CCOc1ccc(N=[N+]([O-])c2ccc(OCC)cc2)cc1 [p,p′-azoxydiphenetole, p,p′-Azoxydiphenetole] |  |  |  | 0.116 per minute | 0.196 per minute | 0.002 per minute | 0.008 per minute | 0.019 per minute | 0.019 per minute | 0.086 per minute | 0.012 per minute | 0.020 per minute | 0.121 per minute | 0.013 per minute | 0.017 per minute | 0.018 per minute |  |
